Test results: publication doi:10.1101/2020.05.29.122762v3 (biorxiv, 2020)
Like-named read-outs stand apart in the source and are kept apart here.

How the values were obtained:
[1] = target: type PO SadP-6407(31-328); details: PBS, 25 °C
[2] = target: type PN SadP(125-329) (Streptococcus suis, UniProt G5DSS1, N271D); assay: biochemical
[3] = target: T1, type PN SadP(125-329) (Streptococcus suis, UniProt G5DSS1); assay: biochemical
T1 sequence (G5DSS1 125-329): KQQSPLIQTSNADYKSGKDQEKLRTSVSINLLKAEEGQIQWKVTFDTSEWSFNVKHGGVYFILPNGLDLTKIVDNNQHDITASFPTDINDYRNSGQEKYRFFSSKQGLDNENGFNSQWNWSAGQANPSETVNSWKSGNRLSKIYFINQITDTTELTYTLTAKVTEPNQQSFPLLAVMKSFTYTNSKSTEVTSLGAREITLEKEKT

[4] = target: T2, type PN SadP-D282(31-328) (Streptococcus suis, UniProt G5DSS1); details: PBS, 25 °C; n=1.14
T2 sequence (G5DSS1 31-328): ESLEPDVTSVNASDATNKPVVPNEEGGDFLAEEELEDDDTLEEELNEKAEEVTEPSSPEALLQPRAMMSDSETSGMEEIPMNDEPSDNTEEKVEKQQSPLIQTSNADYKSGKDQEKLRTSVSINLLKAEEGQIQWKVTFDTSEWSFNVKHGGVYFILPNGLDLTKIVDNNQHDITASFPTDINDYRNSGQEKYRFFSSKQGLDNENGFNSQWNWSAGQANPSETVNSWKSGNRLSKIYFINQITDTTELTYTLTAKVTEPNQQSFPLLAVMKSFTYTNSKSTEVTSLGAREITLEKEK

SMILES	Kd ([1]; n=0.85)	Kd [2]	Kd ([1]; n=0.13, poorly defined fit)	Kd [3]	Kd [4]
C[Si](C)(C)CCO[C@@H]1O[C@H](CO)[C@H](O[C@H]2O[C@H](CO)[C@H](O)[C@H](O)[C@H]2O)[C@H](O)[C@H]1O [Galα1–4Gal TMSEt glycoside]	3.5 ± 1.6 µM	22.7 ± 7.2 µM			
CC(=O)N[C@H]1[C@H](O[C@H]2[C@@H](O)[C@@H](CO)O[C@H](O[C@@H]3[C@H](O)[C@@H](O)[C@H](OCC[Si](C)(C)C)O[C@@H]3CO)[C@@H]2O)O[C@H](CO)[C@H](O)[C@@H]1O [GalNAcβ1–3Galα1–4Gal TMSEt glycoside]			940 ± 680 µM	36 ± 4.8 µM	33.7 ± 3.5 µM
